Each structure is given as a SMILES string.

This experiment has as its system Bovine cardiac myofibrils. Kind of experiment: In vitro model of dose-dependent myofibril ATPase modulation (AC1.4, pyruvate kinase/lactate dehydrogenase-coupled ATPase assay at pCa25). Format: biochemical. Particulars: concentration at which ATPase activity was 1.4-fold higher than the bottom of the dose curve, mean of a minimum of two independent tests. The gist of the method: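 Detergent-skinned bovine cardiac myofibrils (typically 0.25-1.0 mg/ml) in Ca-buffered (EGTA/CaCl2) PK/LDH-coupled ATPase assay: 12 mM K-PIPES pH 6.80, 2 mM MgCl2, 1 mM ATP, 1 mM DTT, 0.5 mM NADH, 1.5 mM PEP. Hydrolysis followed at 340 nm; dose response fit to 4-parameter equation; AC1.4 is mean of ≥2 tests.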
`O=C(NCc1ccc(C(F)(F)F)cc1F)[C@H]1CCCN1C(=O)[C@H]1CCCN(S(=O)(=O)N2CC(OCCF)C2)C1` [Example 237, 1-(((3S)-1-((3-(2-fluoroethoxy)-1-azetidinyl)sulfonyl)-3-piperidinyl)carbonyl)-N-(2-fluoro-4-(trifluoromethyl)benzyl)-D-prolinamide] had an AC1.4 of 0.5593 µM.

For `CS(=O)(=O)C1CN(S(=O)(=O)N2CCC[C@H](C(=O)N3CCC[C@@H]3C(=O)NCc3cc(F)cc(F)c3)C2)C1` [Example 429, N-(3,5-difluorobenzyl)-1-(((3S)-1-((3-(methylsulfonyl)-1-azetidinyl)sulfonyl)-3-piperidinyl)carbonyl)-D-prolinamide], the AC1.4 amounted to 1.6075 µM.

`CS(=O)(=O)c1cccc(C(=O)N2CCC[C@@H]2C(=O)N[C@@H](c2cc(F)c(C(F)(F)F)cc2F)[C@H]2C[C@@H](O)C2)c1` [Example 827, (R)-N-((R)-(2,5-difluoro-4-(trifluoromethyl)phenyl)((1s,3S)-3-hydroxycyclobutyl)methyl)-1-(3-(methylsulfonyl)benzoyl)pyrrolidine-2-carboxamide] yielded an AC1.4 of 0.15 µM.

The molecule `Cc1noc(C(=O)N2[C@@H](C(=O)N[C@@H](c3cc(F)c(C(F)(F)F)cc3F)C3COC3)C[C@H]3C[C@H]32)c1C` [Example 824, (1R,3R,5R)-N-((R)-(2,5-difluoro-4-(trifluoromethyl)phenyl)(oxetan-3-yl)methyl)-2-(3,4-dimethylisoxazole-5-carbonyl)-2-azabicyclo[3.1.0]hexane-3-carboxamide] registered an AC1.4 of 8.874 µM.

The molecule `CC(C)[C@@H](NC(=O)[C@H]1CCCN1C(=O)c1cccc(S(C)(=O)=O)c1)c1ccc(C(F)(F)F)cc1F` [Example 807, N-((1R)-1-(2-fluoro-4-(trifluoromethyl)phenyl)-2-methylpropyl)-1-(3-(methylsulfonyl)benzoyl)-D-prolinamide] displayed an AC1.4 of 4.609 µM.

The molecule `CN(C)C(=O)C1CN(S(=O)(=O)N2CCC[C@H](C(=O)N3CCC[C@@H]3C(=O)NCc3ccc(C(F)(F)F)cc3)C2)C1` [Example 712, (R)-1-((S)-1-((3-(dimethylcarbamoyl)azetidin-1-yl)sulfonyl)piperidine-3-carbonyl)-N-(4-(trifluoromethyl)benzyl)pyrrolidine-2-carboxamide] returned an AC1.4 of 5.9215 µM.

In turn, `N#CC1CN(S(=O)(=O)N2CCC[C@H](C(=O)N3CCC[C@@H]3C(=O)NC3CCc4ccccc43)C2)C1` (stereo partly drawn) [Example 442, (2R)-1-((S)-1-((3-cyanoazetidin-1-yl)sulfonyl)piperidine-3-carbonyl)-N-(2,3-dihydro-1H-inden-1-yl)pyrrolidine-2-carboxamide] yielded an AC1.4 of 1.7305 µM.

In turn, `N#CC1CN(S(=O)(=O)N2CCC[C@H](C(=O)N3CCCC[C@@H]3C(=O)NCc3ccc(C(F)(F)F)cc3)C2)C1` [Example 65, (2R)-1-(((3S)-1-((3-cyano-1-azetidinyl)sulfonyl)-3-piperidinyl)carbonyl)-N-(4-(trifluoromethyl)benzyl)-2-piperidinecarboxamide] displayed an AC1.4 of 0.0748 µM.

`CS(=O)(=O)c1ccc(C(=O)N2CCC[C@@H]2C(=O)NC(c2ccc(C(F)(F)F)cc2F)C2CC2)cn1` (stereo partly drawn) [Example 569, (2R)-N-(cyclopropyl(2-fluoro-4-(trifluoromethyl)phenyl)methyl)-1-(6-(methylsulfonyl)nicotinoyl)pyrrolidine-2-carboxamide]: the AC1.4 came to 3.182 µM.

The molecule `N#CC1CN(S(=O)(=O)N2CCC[C@H](C(=O)N3CCC[C@@H]3C(=O)NCc3ccc(Cl)c(F)c3)C2)C1` [Example 51, N-(4-chloro-3-fluorobenzyl)-1-(((3S)-1-((3-cyano-1-azetidinyl)sulfonyl)-3-piperidinyl)carbonyl)-D-prolinamide] gave an AC1.4 of 0.0553 µM.

In the case of `Cc1ccc(C(=O)N2[C@@H](C(=O)N[C@@H](c3ccc(C(F)(F)F)cc3F)C3COC3)C[C@H]3C[C@H]32)cc1S(C)(=O)=O` [Example 727, (1R,3R,5R)-N-((R)-(2-fluoro-4-(trifluoromethyl)phenyl)(3-oxetanyl)methyl)-2-(4-methyl-3-(methylsulfonyl)benzoyl)-2-azabicyclo[3.1.0]hexane-3-carboxamide], the AC1.4 amounted to 6.61 µM.

As to `N#CC1CN(S(=O)(=O)N2CCC[C@H](C(=O)N3CCC[C@@H]3C(=O)NCc3cccc(Cl)c3)C2)C1` [Example 438, N-(3-chlorobenzyl)-1-(((3S)-1-((3-cyano-1-azetidinyl)sulfonyl)-3-piperidinyl)carbonyl)-D-prolinamide], the AC1.4 was 1.712 µM.

For `CS(=O)(=O)c1ccc(F)c(C(=O)N2CCC[C@@H]2C(=O)N[C@@H](c2ccc(C(F)(F)F)cc2F)C2CC2)c1F` [Example 563, N-((R)-cyclopropyl(2-fluoro-4-(trifluoromethyl)phenyl)methyl)-1-(2,6-difluoro-3-(methylsulfonyl)benzoyl)-D-prolinamide], the AC1.4 is 2.8195 µM.

In turn, `O=C(NCc1ccc(C(F)(F)F)cc1)[C@H]1CCCN1C(=O)[C@H]1CCCN(S(=O)(=O)N2CC(Cc3ccc(Cl)cc3)C2)C1` [Example 699, 1-(((3S)-1-((3-(4-chlorobenzyl)-1-azetidinyl)sulfonyl)-3-piperidinyl)carbonyl)-N-(4-(trifluoromethyl)benzyl)-D-prolinamide] returned an AC1.4 of 5.5865 µM.

Turning to `CC(C)c1cc(C(=O)N2[C@@H](C(=O)N[C@@H](c3cc(F)c(Cl)cc3F)C3COC3)C[C@H]3C[C@H]32)ccn1` [Example 504, (1R,3R,5R)-N-((R)-(4-chloro-2,5-difluorophenyl)(3-oxetanyl)methyl)-2-((2-(2-propanyl)-4-pyridinyl)carbonyl)-2-azabicyclo[3.1.0]hexane-3-carboxamide], the AC1.4 stood at 2.3635 µM.

On to `N#CC1CN(S(=O)(=O)N2CCC[C@H](C(=O)N3CCC[C@@H]3C(=O)NCc3cc(F)c(F)c(F)c3)C2)C1` [Example 153, 1-(((3S)-1-((3-cyano-1-azetidinyl)sulfonyl)-3-piperidinyl)carbonyl)-N-(3,4,5-trifluorobenzyl)-D-prolinamide], for which the AC1.4 turned out to be 0.2697 µM.

For the molecule `N#CC1CN(S(=O)(=O)N2CCC[C@H](C(=O)N3CCC[C@@H]3C(=O)NCc3cccc(OC(F)F)c3)C2)C1` [Example 781, 1-(((3S)-1-((3-cyano-1-azetidinyl)sulfonyl)-3-piperidinyl)carbonyl)-N-(3-(difluoromethoxy)benzyl)-D-prolinamide], the AC1.4 was determined as 8.59 µM.

`C#CCN(C)S(=O)(=O)c1cccc(C(=O)N2CCC[C@@H]2C(=O)N[C@H](C)c2ccc(C(F)(F)F)cc2)c1` [Example 749, 1-(3-(methyl(2-propyn-1-yl)sulfamoyl)benzoyl)-N-((1R)-1-(4-(trifluoromethyl)phenyl)ethyl)-D-prolinamide] registered an AC1.4 of 7.3175 µM.

In turn, `CCNc1cnc(C)cc1C(=O)N1[C@@H](C(=O)N[C@@H](c2ccc(C(F)(F)F)cc2F)C2CC2)C[C@H]2C[C@H]21` [Example 383, (1R,3R,5R)-N-((R)-cyclopropyl(2-fluoro-4-(trifluoromethyl)phenyl)methyl)-2-((5-(ethylamino)-2-methyl-4-pyridinyl)carbonyl)-2-azabicyclo[3.1.0]hexane-3-carboxamide] yielded an AC1.4 of 1.2725 µM.

(Values after patent US11780826B2 (Amgen Inc., priority 2017, dated 2023).)
